Data from ChEMBL document CHEMBL1201862, “PubChem BioAssay data set” (2004).
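Briefly, cells in 96-well plates were exposed to five compound concentrations for 48 h, and endpoints were estimated by linear interpolation. Here, GI50 denotes the concentration required for 50% inhibition of growth.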 Activity calls are given as the source filed them. Rule as the data show it: active = GI50 up to about 1.1 µM and inactive = higher. Residues, ends and D or L forms follow the SMILES beside them. *: point of attachment. Bn = c1ccc(C*)cc1

Assays:
Assay in all cases: inhibition of tumour cell growth, NCI panel, 48 h
MDA-N = tested on: MDA-N
NCI-H460 = tested on: NCI-H460
UO-31 = tested on: UO-31
SW-620 = tested on: SW-620
UACC-257 = tested on: UACC-257
HT-29 = tested on: HT-29
TK-10 = tested on: TK-10
U-251 = tested on: U-251
SF-268 = tested on: SF-268
HOP-62 = tested on: HOP-62
KM12 = tested on: KM12
NCI-H23 = tested on: NCI-H23
COLO 205 = tested on: COLO 205
SK-MEL-2 = tested on: SK-MEL-2
SR = tested on: SR
CCRF-CEM = tested on: CCRF-CEM
MDA-MB-435 = tested on: MDA-MB-435
SF-295 = tested on: SF-295
SK-MEL-28 = tested on: SK-MEL-28
BT-549 = tested on: BT-549

Structure (SMILES)	GI50 (MDA-N)	GI50 (NCI-H460)	GI50 (UO-31)	GI50 (SW-620)	GI50 (UACC-257)	GI50 (HT-29)	GI50 (TK-10)	GI50 (U-251)	GI50 (SF-268)	GI50 (HOP-62)	GI50 (KM12)	GI50 (NCI-H23)	GI50 (COLO 205)	GI50 (SK-MEL-2)	GI50 (SR)	GI50 (CCRF-CEM)	GI50 (MDA-MB-435)	GI50 (SF-295)	GI50 (SK-MEL-28)	GI50 (BT-549)
Brc1cc2nn(-c3ccccc3)nc2c2nonc12	> 100 µM (inactive)	> 100 µM (inactive)	> 100 µM (inactive)	> 100 µM (inactive)	> 100 µM (inactive)	> 100 µM (inactive)	> 100 µM (inactive)	> 100 µM (inactive)	> 100 µM (inactive)	> 100 µM (inactive)	> 100 µM (inactive)	> 100 µM (inactive)	> 100 µM (inactive)	> 100 µM (inactive)	> 100 µM (inactive)	> 100 µM (inactive)	> 100 µM (inactive)	> 100 µM (inactive)	> 100 µM (inactive)	> 100 µM (inactive)
CC1(C)O[C@@H](CP(c2cccc3ccccc23)c2cccc3ccccc23)[C@H](CP(c2cccc3ccccc23)c2cccc3ccccc23)O1	> 100 µM (inactive)	> 100 µM (inactive)	> 100 µM (inactive)	> 100 µM (inactive)	> 100 µM (inactive)	> 100 µM (inactive)	> 100 µM (inactive)	> 100 µM (inactive)	> 100 µM (inactive)	> 100 µM (inactive)	> 100 µM (inactive)	> 100 µM (inactive)	> 100 µM (inactive)	> 100 µM (inactive)	> 100 µM (inactive)	> 100 µM (inactive)	> 100 µM (inactive)	> 100 µM (inactive)	> 100 µM (inactive)	> 100 µM (inactive)
O=c1oc2ccc3ccccc3c2cc1-c1cn2ccccc2n1	> 100 µM (inactive)	> 100 µM (inactive)	20 µM (inactive)	> 100 µM (inactive)	> 100 µM (inactive)	26.5 µM (inactive)	67.8 µM (inactive)	24.2 µM (inactive)	80.5 µM (inactive)	52.6 µM (inactive)	57.7 µM (inactive)	> 100 µM (inactive)	> 100 µM (inactive)	> 100 µM (inactive)	> 100 µM (inactive)	> 100 µM (inactive)	> 100 µM (inactive)	37.2 µM (inactive)	> 100 µM (inactive)	> 100 µM (inactive)
Oc1cc(-c2cccc(Cl)c2)nc2cc3c(cc12)OCO3	0.0255 µM (active)	0.274 µM (active)	0.33 µM (active)	0.351 µM (active)	0.366 µM (active)	2 µM (inactive)	6.31 µM (inactive)			0.379 µM (active)	0.24 µM (active)	0.951 µM (active)	1.85 µM (inactive)	0.207 µM (active)	0.342 µM (active)	0.519 µM (active)	0.0377 µM (active)			0.284 µM (active)
COC(=O)CCc1cc(OC)c2oc(-c3ccc(OC)c(OC)c3)c(CO)c2c1	> 100 µM (inactive)	> 100 µM (inactive)	> 100 µM (inactive)	> 100 µM (inactive)	> 100 µM (inactive)	> 100 µM (inactive)	> 100 µM (inactive)	> 100 µM (inactive)	> 100 µM (inactive)	> 100 µM (inactive)	> 100 µM (inactive)	> 100 µM (inactive)	> 100 µM (inactive)	65 µM (inactive)	56 µM (inactive)	> 100 µM (inactive)	> 100 µM (inactive)	> 100 µM (inactive)	> 100 µM (inactive)	> 100 µM (inactive)
COC(=O)C(CC(C)C)NC(=O)C(N)Cc1ccc(OCc2ccccc2)cc1 (stereo unspecified) (H-Tyr(Bn)-Leu-OMe; configuration not given here)	> 10 µM (inactive)	> 10 µM (inactive)	> 10 µM (inactive)	> 10 µM (inactive)	> 10 µM (inactive)	> 10 µM (inactive)	> 10 µM (inactive)	> 10 µM (inactive)	> 10 µM (inactive)	> 10 µM (inactive)	> 10 µM (inactive)	> 10 µM (inactive)	> 10 µM (inactive)	> 10 µM (inactive)	7.64 µM (inactive)	> 10 µM (inactive)	> 10 µM (inactive)	> 10 µM (inactive)	> 10 µM (inactive)	> 10 µM (inactive)
c1ccc(CN2CCc3[nH]c4ccccc4c3C2)cc1	22.1 µM (inactive)	16.7 µM (inactive)	31.8 µM (inactive)	24.8 µM (inactive)	16 µM (inactive)	17.3 µM (inactive)	23.9 µM (inactive)	21.4 µM (inactive)	43.8 µM (inactive)	41 µM (inactive)	22.5 µM (inactive)	59.2 µM (inactive)	16.9 µM (inactive)	19.9 µM (inactive)	21.9 µM (inactive)	24.3 µM (inactive)	22.9 µM (inactive)	29.9 µM (inactive)	17.5 µM (inactive)	30.5 µM (inactive)
